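Each compound was tested at five concentrations against cells in 96-well plates for 48 hours. TGI denotes the concentration required for complete inhibition of growth.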
Legend:
Assay in all cases: NCI tumour cell line growth inhibition, 48 h
MDA-N = test system: MDA-N
HCT-116 colon = test system: HCT-116 colon
IGROV1 ovarian = test system: IGROV1 ovarian
T-47D breast = test system: T-47D breast
A498 renal = test system: A498 renal
SK-MEL-5 melanoma = test system: SK-MEL-5 melanoma
TK-10 renal = test system: TK-10 renal
SK-OV-3 ovarian = test system: SK-OV-3 ovarian
RPMI-8226 leukemia = test system: RPMI-8226 leukemia
NCI-H23 lung = test system: NCI-H23 lung
HOP-62 NSCLC = test system: HOP-62 NSCLC

Compound	TGI (MDA-N)	TGI (HCT-116 colon)	TGI (IGROV1 ovarian)	TGI (T-47D breast)	TGI (A498 renal)	TGI (SK-MEL-5 melanoma)	TGI (TK-10 renal)	TGI (SK-OV-3 ovarian)	TGI (RPMI-8226 leukemia)	TGI (NCI-H23 lung)	TGI (HOP-62 NSCLC)
CC(=O)Nc1c(S(=O)(=O)c2ccccc2)c(C)c(C)n1CCN(C)C	> 100 µM	> 100 µM	> 100 µM	> 100 µM	> 100 µM	> 100 µM	> 100 µM	> 100 µM	> 100 µM	> 100 µM	
COc1ccc(N=Nc2c(C)c(C#N)c(=S)n(C3OC(CO)C(O)C(O)C3O)c2-c2ccccc2)cc1 (configuration not stated)	> 100 µM	94 µM	> 100 µM	97.3 µM	44.5 µM	27.8 µM	94.8 µM	83.3 µM	> 100 µM	98 µM	98.2 µM
N=C1OC(CN2CCN(c3ccccc3)CC2)CN1C(=S)Nc1ccccc1 (configuration not stated)	> 100 µM	> 100 µM	> 100 µM	> 100 µM	> 100 µM	> 100 µM	> 100 µM	> 100 µM	> 100 µM	> 100 µM	> 100 µM
O=C(O[C@@H](/C=C/c1ccccc1)P1(=O)N(Cc2ccccc2)[C@H]2CCCC[C@@H]2N1Cc1ccccc1)c1ccccc1	> 100 µM	> 100 µM	> 100 µM	47.2 µM	8.43 µM	3.67 µM	37 µM	77.1 µM	7.31 µM	36 µM	10.8 µM
C=C=C(CC1CCCCC1=O)S(=O)(=O)c1ccccc1 (configuration not stated)	> 10 µM	> 4.94 µM	> 10 µM	> 10 µM	> 10 µM	> 10 µM	> 10 µM	> 10 µM	> 4.76 µM	> 10 µM	> 10 µM
CC(=O)C1=C(C)N2C(=NC3=C(CCc4ccccc43)C2c2ccc(F)cc2)S1 (configuration not stated)	> 100 µM	> 100 µM	> 100 µM	> 100 µM	> 100 µM	> 100 µM		> 100 µM	85 µM	> 100 µM	> 100 µM
Cc1cc2c(c(C=Nc3ccccc3O)c1)OC1(C=C2)Oc2ccccc2C(=O)N1C (configuration not stated)	77.3 µM	27.5 µM	58.5 µM	8.45 µM	56.1 µM	36.4 µM	48 µM	58.4 µM	84.3 µM	34.6 µM	66.3 µM
C=CCN(c1cc(OCc2ccccc2)c2[nH]cc(C)c2c1)S(C)(=O)=O	> 100 µM	> 100 µM	> 100 µM	60.6 µM	90.9 µM	> 100 µM	> 100 µM	> 100 µM	> 100 µM	> 100 µM	> 100 µM
COC(=O)C(N)CCCC(N)C(=O)NC(C)C(=O)NC(CCC(=O)NCCNCCNc1c2ccccc2nc2cccc([N+](=O)[O-])c12)C(N)=O (configuration not stated)	28.1 µM	24.5 µM	> 100 µM	45.8 µM	40.3 µM	18.1 µM	> 94.3 µM	> 100 µM	34.6 µM	9.91 µM	53.7 µM
